These results are taken from patent US20190071416A1, “COMPOUNDS FOR TREATMENT OF CANCER AND EPIGENETICS” (Agency For Science, Technology and Research, priority 2015, published 2019).

The GI50 is the concentration at which growth is held to half of that of the control. Higher therefore signals less potent growth inhibition. Usually inhibition stands for the drop in the measured response relative to a control, in per cent.

The test system of data set [1] is MAP3K2 methylation (me2/me3-Lys 260). Nature of the data set: SMYD3 mediated methylation of MAP3K2 in HEK293 cells (Western blot). It counts as cell-based, Human. Particulars: 25 μM. The procedure: (§1) The cells were seeded in 6 well plates. After seeding for 24 h, the cells were treated with either DMSO or 25 μM compound and incubated for 24 hr. The cells were trypsinized and the lysate was extracted with RIPA buffer (Santa Cruz). The total protein concentration of lysate is quantified using the standard Bradford assay (Biorad protein assay, microplate standard assay).
Western blot analysis for detecting methylated MAP3K2 was carried out using a customized Anti-me2/me3-Lys 260 MAP3K2 at 1:500 and the total MAP3K2 was detected using Anti-MEKK2 (AB33918) using a 1:10,000 dilution.
B019 was further tested for its ability to inhibit SMYD3 in cells through its effects on cellular MAP3K2 methylation. This was performed using an antibody against the MAP3K2 (me2/me3), Anti-ME2/ME3-K260-MAP3K2 (1:500) and total MAP3K2, Anti-MEKK2 #ab33918 (1:10,000).

Data set [2] concerns the target T1, SMYD3 (Homo sapiens, UniProt Q9H7B4).
T1 sequence (Q9H7B4 1-428): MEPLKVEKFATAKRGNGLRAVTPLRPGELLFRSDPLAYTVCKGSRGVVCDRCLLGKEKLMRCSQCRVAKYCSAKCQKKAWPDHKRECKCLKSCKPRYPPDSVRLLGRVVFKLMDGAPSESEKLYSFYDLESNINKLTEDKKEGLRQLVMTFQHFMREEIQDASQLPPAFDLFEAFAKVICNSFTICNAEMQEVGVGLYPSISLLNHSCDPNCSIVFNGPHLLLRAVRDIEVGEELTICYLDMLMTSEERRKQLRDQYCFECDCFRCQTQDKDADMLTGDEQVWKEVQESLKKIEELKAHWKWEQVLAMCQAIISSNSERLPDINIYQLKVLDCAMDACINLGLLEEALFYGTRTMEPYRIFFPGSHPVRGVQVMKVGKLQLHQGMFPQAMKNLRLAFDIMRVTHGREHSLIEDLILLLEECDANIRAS
Nature of the data set: SMYD3 biochemical assay (MTase-Glo, MAP3K2 peptide substrate). A digest of the protocol: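 Methylation of MAP3K2 peptide (10 µM final) with SAM (1.0 µM final) by SMYD3, 30 min at room temperature. SAH formed was enzymatically converted to ATP and detected as luminescence with MTase-Glo reagents; IC50 by non-linear regression.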

Data set [3] is described as follows: Human liver microsomes stability test. In kind it is in vitro ADME. In general terms: Liver microsomes are vesicles of endoplasmic reticulum, rich in cytochrome P450 enzymes.
Data set [4] in a line: Mouse liver microsomes stability test. It counts as in vitro ADME.
Data set [5] deals with ubiquitin specific protease 7 (Homo sapiens, UniProt Q93009). Particulars: cited from earlier work.
Another data set deals with CFPAC-1. Nature of the data set: Cell proliferation assay (CellTiter-Glo), CFPAC-1. It counts as cell-based. Particulars: Homo sapiens, CFPAC-1, 72 h; 3 days. The procedure:
(§2) The cell proliferation assays were tested in several cell lines, including HepG2,HCT116, A549, HPAF-II, CFPAC-1,HuH7, SNU398,Hep3B, and HEK293. All cell lines are from ATCC. HepG2, HPAF-II and HEK293 are cultured in Eagle's MEM media supplemented with fetal bovine serum. HCT116 is cultured in McCoy media supplemented with fetal bovine serum. Huh-7 is cultured in DMEM low glucose (1000 mg/L glucose) with 10% FBS, 1% L-Glutamate and 1% Penicillin/Streptomycin. SNU398 is cultured in RPMI with 10% FBS with 1% L-Glutamate and 1% Penicillin/Streptomycin. Hep3B is cultured in Eagle's MEM with 10% FBS, 1% L-Glutamate and 1% Penicillin/Streptomycin. A549 is cultured in RPMI media supplemented with fetal bovine serum while CFPAC-1 is cultured in IMDM media supplemented with fetal bovine serum. All media and serum are purchased from Gibco (Lifetech). All cells were grown in a temperature controlled incubator at 37° C. and 5% CO2.
(§3) Cell proliferation assay was performed using CellTiter-Glo Luminescent Cell Viability Assay (Promega) following manufacturer's instructions. The cell-line of interest was treated with compounds that were serial diluted in its respective media. Plates were incubated for 3 days at 37° C. in 5% CO2. After 3 days, an equal volume of Cell Titer Glo reagent was added. Plates were rocked on a rotator for 2 h. 100 μL of each well were transferred to a 96-well opaque plate, and luminescence emitted was measured with the Tecan Safire II.
For orientation: In ATP-based viability assays light output follows the ATP content of the culture.

For another data set, the system named is HepG2. Nature of the data set: Cell proliferation assay (CellTiter-Glo), HepG2. Particulars: Homo sapiens, HepG2, 72 h; 3 days. It counts as cell-based. The procedure: as §2, §3
The test system of another data set is HCT-116. Nature of the data set: Cell proliferation assay (CellTiter-Glo), HCT-116. Particulars: Homo sapiens, HCT-116, 72 h; 3 days. In kind it is cell-based. As to the method:
as §2, §3

A further data set concerns HPAF-II. Nature of the data set: Cell proliferation assay (CellTiter-Glo), HPAF-II. It counts as cell-based. Particulars: Homo sapiens, 72 h, 3 days. As to the method: as §2, §3
The next data set relates to A549. Nature of the data set: Cell proliferation assay (CellTiter-Glo), A549. It counts as cell-based. Particulars: Homo sapiens, A549, 72 h; 3 days. As to the method: as §2, §3
The test system of a further data set is Hep G2 cells. Nature of the data set: Soft agar colony formation assay. In kind it is cell-based, human. Particulars: Homo sapiens, HepG2. As to the method: Hep G2 cells were purchased from ATCC. Hep G2 cells were maintained in Eagle's Minimum Essential Medium (Sigma, Cat No: #M0643) supplemented with 10% Fetal Bovine Serum (Hyclone, Cat No: SV30087.03), 2 mM L-glutamine, 100 units/mL penicillin and 100 μg/mL streptomycin (Life Technologies, Cat No: 10378-016). The soft agar assays were performed in concordance to the ETC approved method report for soft agar assay (ETC document number: RD0019). Briefly, 600 μL of 0.6% agar was added to 24-well plate (Corning, Cat No: 3738) to form the base layer. This is followed by the addition of 500 μL of 0.36% agar middle layer (containing 10′000Hep G2 cells). Lastly, 500 μL of fresh growth medium (containing the corresponding serially diluted compound) was added above the middle layer. The plates were incubated at 37° C. with 5% carbon dioxide in a humidified incubator for 1 to 2 weeks. 70 μL of thiazolyl blue tetrazolium bromide (5 mg/mL, Sigma Cat No: M5655) was added to each well and the plates were incubated at 37° C. for 2 h. Colonies were counted with GelCount® instrument (Oxford Optronix). The colony counts were plotted against compound concentrations using the Graphpad Prism software. In addition, the software was used to perform non-linear curve fitting and the calculation of IC50.

The target in data set [6] is T1, SMYD3. Nature of the data set: Target engagement assay, SMYD3 levels by Western blot in HEK293 cells transfected with Myc-SMYD3. It counts as cell-based. Also on record: host or cells: HEK293 (ATCC). Particulars: compared to B019. As to the method: The target engagement assay was performed with HEK293 that is engineered to overexpress SMYD3 (HEK293-SMYD3). The plasmid SMYD3 (Myc-DDK-tagged-Human SET and MYND domain containing 3) was purchased from Origene (RC230064) and transfected with lipofectamine 2000 (Invitrogen) into HEK293 (ATCC). The cell line is cultured in Eagle's MEM media supplemented with fetal bovine serum and geneticin (Invitrogen). Presence of over-expressed SMYD3 is confirmed with western blot with antibody against SMYD3 and the MYC tag as well as with RT-PCR with SMYD3 primers.
as §1
Western blot analysis was performed using antibody against SMYD3 in HEK293 cells over-expressing SMYD3 (HEK293-SMYD3) treated with compound at different time points. 15.0 μg of cell lysate was diluted in 2× Laemmli sample buffer (Bio-Rad) and boiled at 100° C. on heat block for 5 min. Lysates were separated using NuPAGE® 4-12% Bis-Tris precast polyacrylamide gels (Lifetech) at 200 V, […] for 40 min. […]
On the technique in general: In western blotting, separated proteins are transferred to a membrane and probed.

Data set [7] deals with T1, SMYD3. Particulars: assay reported in the publication; cited from earlier work.
Setting [8] is: Table 4, prior art compounds, read-out: IC50.
The mark [9] stands for this setting: Table 1, MAP3K2 peptide as substrate, read-out: IC50.
The mark [10] stands for this setting: Table 2, read-out: Biochemical assay IC50.
The mark [11] stands for this setting: Table 3, MTase assay, MAP3K2 peptide substrate, read-out: IC50.

Like-named read-outs stand apart in the source and are kept apart here.

Sequence of ubiquitin specific protease 7 (Q93009 whole entry): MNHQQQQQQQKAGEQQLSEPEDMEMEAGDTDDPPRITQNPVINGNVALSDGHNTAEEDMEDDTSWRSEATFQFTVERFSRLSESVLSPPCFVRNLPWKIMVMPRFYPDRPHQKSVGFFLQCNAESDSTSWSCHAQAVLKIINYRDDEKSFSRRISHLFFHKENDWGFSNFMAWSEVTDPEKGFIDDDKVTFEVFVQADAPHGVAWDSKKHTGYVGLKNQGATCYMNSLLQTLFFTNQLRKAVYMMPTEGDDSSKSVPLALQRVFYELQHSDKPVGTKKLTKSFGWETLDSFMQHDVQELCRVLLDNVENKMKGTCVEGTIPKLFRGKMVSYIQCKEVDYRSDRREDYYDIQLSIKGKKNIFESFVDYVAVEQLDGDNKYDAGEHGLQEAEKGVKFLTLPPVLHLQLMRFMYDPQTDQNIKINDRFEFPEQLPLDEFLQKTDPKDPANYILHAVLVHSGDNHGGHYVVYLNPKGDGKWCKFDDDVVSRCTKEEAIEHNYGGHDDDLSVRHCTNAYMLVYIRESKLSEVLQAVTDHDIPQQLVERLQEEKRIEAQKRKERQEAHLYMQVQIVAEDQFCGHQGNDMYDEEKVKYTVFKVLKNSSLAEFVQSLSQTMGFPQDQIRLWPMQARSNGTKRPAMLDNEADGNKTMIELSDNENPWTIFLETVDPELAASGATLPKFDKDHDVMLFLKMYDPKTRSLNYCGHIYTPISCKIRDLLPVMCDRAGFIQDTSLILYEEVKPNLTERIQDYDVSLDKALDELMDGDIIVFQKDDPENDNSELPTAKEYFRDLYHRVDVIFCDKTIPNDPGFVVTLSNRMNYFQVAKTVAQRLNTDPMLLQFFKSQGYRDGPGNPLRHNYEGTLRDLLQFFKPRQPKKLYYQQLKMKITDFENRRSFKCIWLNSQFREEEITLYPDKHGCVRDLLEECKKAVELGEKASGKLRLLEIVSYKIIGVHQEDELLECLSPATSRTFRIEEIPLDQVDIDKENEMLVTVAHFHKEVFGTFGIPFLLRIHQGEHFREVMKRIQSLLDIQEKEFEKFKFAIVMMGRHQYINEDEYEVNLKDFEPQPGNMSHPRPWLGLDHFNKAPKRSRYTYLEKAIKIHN

Take `CCOC(=O)N1CCN(C(=O)c2ccc3c(Cl)c4c(nc3c2)CCCC4)CC1` [X4, ethyl 4-(9-chloro-5,6,7,8-tetrahydroacridine-3-carbonyl)piperazine-1-carboxylate, reference compound]: the “inhibition of methylation of MAP3K2 in cells” value in [1] was “unable to inhibit”. In addition, the IC50 at SMYD3 [2] (read-out: active against SMYD3) was 6.2 µM. The half-life is 9 min in data set [3] (read-out: half-life, t1/2) and 4 min in data set [4] (read-out: half-life, t1/2).

On to `Cc1cccc(CN2CCC(CNC(=O)c3ccc4c(Cl)c5c(nc4c3)CCCC5)CC2)c1` [X2, reference compound], for which the “activity against SMYD3” value at SMYD3 [2] is “not active”. Also, at SMYD3 [2] (setting [8]), the IC50 came out at 750 µM. In [5], the “activity against ubiquitin specific protease 7” value is listed as “act against”.

Turning to `CCCOC(=O)N1CCN(C(=O)c2ccc3c(Cl)c4c(nc3c2)CCC(CCN)C4)CC1` (centres unmarked) [A066, Propyl 4-(7-(2-aminoethyl)-9-chloro-5,6,7,8-tetrahydroacridine-3-carbonyl)piperazine-1-carboxylate], the GI50 came out at 15.3 µM in the data set on CFPAC-1; 33.1 µM in the data set on HepG2; 24.9 µM with HCT-116; 11.1 µM with HPAF-II; 18.4 µM in the data set with A549. Further, the IC50 was 0.0461 µM on SMYD3 [2] (setting [9]), 0.0461 µM on SMYD3 [2] (setting [10]) and 0.3 µM on SMYD3 [2] (setting [11]).

With `CCCOC(=O)N1CCN(C(=O)c2ccc3c(Cl)c4c(nc3c2)CC(c2ccccn2)CC4)C[C@H]1C` (stereo partly drawn) [A074, Propyl (2R)-4-(9-chloro-6-(pyridin-2-yl)-5,6,7,8-tetrahydroacridine-3-carbonyl)-2-methylpiperazine-1-carboxylate], the GI50 with CFPAC-1 was found to be 36.9 µM; with HepG2, 10.7 µM; in the data set on HCT-116 it was 11.4 µM; in the data set on HPAF-II, 50.4 µM; in the data set on A549, 15.8 µM. Also, the IC50 was found to be 0.152 µM on SMYD3 [2] (setting [9]); 0.152 µM on SMYD3 [2] (setting [10]); 0.15 µM on SMYD3 [2] (setting [11]); 0.71 µM with Hep G2 cells (Hep G2, soft agar). This compound also had an inhibition at 10 µM in the data set with Hep G2 cells (highest concentration tested (10 μM)) of roughly 100%.

With `CCCOC(=O)N1CCN(C(=O)c2ccc3c(Cl)c4c(nc3c2)CC(CCN)CC4)[C@@H](C)C1` (stereo partly drawn) [A088, Propyl (3S)-4-(6-(2-aminoethyl)-9-chloro-5,6,7,8-tetrahydroacridine-3-carbonyl)-3-methylpiperazine-1-carboxylate], the GI50 stood at 21.9 µM with CFPAC-1; 17.1 µM in the data set with HepG2; 16.1 µM in the data set on HCT-116; 33.7 µM in the data set with HPAF-II; 28.4 µM with A549. Further, the IC50 on SMYD3 [2] (setting [9]) turned out to be 0.092 µM; at SMYD3 [2] (setting [10]), 0.092 µM; on SMYD3 [2] (setting [11]), 0.09 µM.

For the compound `CCOC(=O)N1CCN(C(=O)c2ccc3c(Cl)c4c(nc3c2)CCCC4)CC1` [ethyl 4-(9-chloro-5,6,7,8-tetrahydroacridine-3-carbonyl)piperazine-1-carboxylate], on SMYD3 [6], the target engagement entry is given as “poor”. Further, the “activity against SMYD3” value on SMYD3 [2] is reported as “moderately active”. For the same compound, the metabolic stability entry in data set [3] (high metabolic clearance) and in [4] (high metabolic clearance) was “poor” throughout.

For the compound `O=C1Cc2cc(C(=O)N[C@H]3C[C@H]4CC[C@@H](C3)N4S(=O)(=O)CC3CCN(CCCC(F)(F)F)CC3)c(Cl)cc2N1` [X5], the “active against SMYD3” value on SMYD3 [7] is listed as 3 nM.

`CN1CCC(N2CCN(C(=O)c3ccc4c(Cl)c5c(nc4c3)CCCC5)CC2)CC1` [X3, reference compound]: the “activity against SMYD3” value on SMYD3 [2] is given as “not active”. Further, at SMYD3 [2] (setting [8]), the IC50 was 750 µM. In data set [5], the “activity against ubiquitin specific protease 7” value is “act against”.
